Experimental data as given in paper PMC5773580, “A synthetic combinatorial approach to disabling deviant Hedgehog signaling” (Scientific Reports, 2018).
pIC50: −log10 of the molar value. “And” between values parts separate entries of the source, which are not always exact repeats. Equal entries are not always repeated.

Columns and labels:
HDAC8 = biological target: T1, HDAC8 (Homo sapiens, UniProt Q9BY41); assay: In vitro HDAC profiling (deacetylation assay), HDAC8; assay type: biochemical; conditions: for HDAC Activity (Fluorescent counts): Repeat1/Repeat 2
T1 construct: purchased BPS Bioscience #50051-11
T1 sequence (Q9BY41 1-377): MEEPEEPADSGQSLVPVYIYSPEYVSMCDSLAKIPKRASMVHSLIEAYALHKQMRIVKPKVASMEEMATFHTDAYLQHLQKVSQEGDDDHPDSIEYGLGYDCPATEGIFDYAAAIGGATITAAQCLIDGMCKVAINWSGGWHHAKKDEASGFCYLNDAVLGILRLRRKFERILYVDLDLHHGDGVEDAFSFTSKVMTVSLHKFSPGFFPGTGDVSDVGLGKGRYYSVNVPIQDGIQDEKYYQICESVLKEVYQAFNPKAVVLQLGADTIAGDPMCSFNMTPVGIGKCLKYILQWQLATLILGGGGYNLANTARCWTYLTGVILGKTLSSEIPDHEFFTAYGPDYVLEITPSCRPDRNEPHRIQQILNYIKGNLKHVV
Method: (§1) HDAC profiling was performed at BPS Bioscience (San Diego, CA). All of the compounds are dissolved in DMSO. A series of dilutions of the compounds were prepared with 10% DMSO in HDAC assay buffer (#50031) and 5 µl of the dilution was added to a 50 µl reaction so that the final concentration of DMSO is 1% in all of reactions. All of the enzymatic reactions were conducted in duplicate at 37 °C for 30 mins, except that the enzyme reactions for HDAC11 were at room temperature for 3 hrs. All of the reactions were performed in a 50 µl mixture containing HDAC assay buffer, 5 µg BSA, an HDAC substrate [HDAC Substrate 3 (BPS number 50037) or HDAC Class 2a Substrate 1 (BPS number 50040)], an HDAC enzyme (#50051-11) and a test compound. After enzymatic reactions, 50 μl of HDAC Developer (#50030) was added to each well and the plate was incubated at room temperature for an additional 20 mins. Fluorescence intensity was measured at an excitation of 360 nm and an emission of 460 nm using a Tecan Infinite M1000 microplate reader. HDAC activity assays were performed in duplicates at each concentration. The fluorescent intensity data were analyzed using the computer software, Graphpad Prism. In the absence of the compound, the fluorescent intensity (Ft) in each data set was defined as 100% activity. In the absence of HDAC, the fluorescent intensity (Fb) in each data set was defined as 0% activity. The percent activity in the presence of each compound was calculated according to the following equation: %activity = (F − Fb)/(Ft − Fb), where F = the fluorescent intensity in the presence of the compound. The values of % activity versus a series of compound concentrations were then plotted using non-linear regression analysis of Sigmoidal dose-response curve generated with the equation Y = B + (T − B)/1 + 10((LogIC50 − X) × Hill Slope), where Y = percent activity, B = minimum percent activity, T = maximum percent activity, X = logarithm of compound and Hill Slope = slope factor or Hill coefficient. The IC50 value was determined by the concentration causing a half-maximal percent activity.

[1] = test system: SHH-induced GLI activity (GLI-BS reporter) in NIH3T3; assay: HH pathway reporter (GLI-BS reporter) assay, +Shh in NIH3T3; assay type: cell-based; conditions: Mus musculus; +Shh in NIH3T3, 48 hrs with compound
Method: (§2) The HH-responsive firefly luciferase reporter (GLI-BS) and a control Renilla luciferase reporter (SV40-RL) were transfected into indicated cell lines using Effectene (Qiagen) either alone or with indicated DNAs. 24 hrs after transfection, cells were switched to low serum media (3% calf serum), and grown for another 48 hrs. in 5% CO2 in the presence/absence of compounds. 3T3-ShhFL cell line that stably expressing SHH and the two reporters were cultured in a similar fashion. FL and RL activities in lysate generated using Passive Lysis Buffer (Promega) were then assessed using the Dual-Luciferase kit (Promega) and a 96-well plate reading luminometer (BMG). The ratio of FL/RL was calculated and the averaged ratios from three replicates were reported.

HDAC5 = biological target: T2, HDAC5 (Homo sapiens, UniProt Q9UQL6); assay: In vitro HDAC profiling (deacetylation assay), HDAC5; assay type: biochemical; conditions: for HDAC Activity (Fluorescent counts): Repeat1/Repeat 2
T2 construct: purchased BPS Bioscience #50051-11
Method: as §1

[2] = test system: GLI1 binding to DNA in RMS13 cells; assay: GLI DNA binding assay (biotinylated oligo pulldown); assay type: cell-based; conditions: lysate of RMS13 cells treated 48 hrs
Method: A detailed protocol for DNA binding assay was previously described. Briefly, cells treated for 48 hrs with compounds were lysed in 1% NP40/phosphate buffered saline/protease inhibitors and cleared using a microcentrifuge. The lysate was then incubated with 0.5 µM of double-strand biotinylated oligonucleotides and 40 µl streptavidin-agarose bead suspension (Thermo Scientific, 20349) for 2 hrs. The streptavidin agarose beads are washed (3X) with 1% NP40/phosphate buffered saline/protease inhibitors and eluted with 2X Laemmli sample buffer. The supernatants are separated on SDS-PAGE and analyzed using western blotting. Antibodies were purchased from the following vendors: GLI1 (Cell Signaling Technology, #2534) and actin (SIGMA, #A5441).

HDAC3/NCOR2 = biological target: T3, HDAC3/NCOR2 (Homo sapiens, UniProt O15379); assay: In vitro HDAC profiling (deacetylation assay), HDAC3; assay type: biochemical; conditions: for HDAC Activity (Fluorescent counts): Repeat1/Repeat 2
T3 construct: purchased BPS Bioscience #50051-11
Method: as §1

[3] = test system: RMS13 cells (GLI1 amp), GLI-BS reporter; assay: GLI-BS reporter assay in RMS13 cells (GLI1 amplification); assay type: cell-based
Method: as §2

[4] = in vitro deacetylation assay, duplicates

T2 sequence (Q9UQL6 whole entry): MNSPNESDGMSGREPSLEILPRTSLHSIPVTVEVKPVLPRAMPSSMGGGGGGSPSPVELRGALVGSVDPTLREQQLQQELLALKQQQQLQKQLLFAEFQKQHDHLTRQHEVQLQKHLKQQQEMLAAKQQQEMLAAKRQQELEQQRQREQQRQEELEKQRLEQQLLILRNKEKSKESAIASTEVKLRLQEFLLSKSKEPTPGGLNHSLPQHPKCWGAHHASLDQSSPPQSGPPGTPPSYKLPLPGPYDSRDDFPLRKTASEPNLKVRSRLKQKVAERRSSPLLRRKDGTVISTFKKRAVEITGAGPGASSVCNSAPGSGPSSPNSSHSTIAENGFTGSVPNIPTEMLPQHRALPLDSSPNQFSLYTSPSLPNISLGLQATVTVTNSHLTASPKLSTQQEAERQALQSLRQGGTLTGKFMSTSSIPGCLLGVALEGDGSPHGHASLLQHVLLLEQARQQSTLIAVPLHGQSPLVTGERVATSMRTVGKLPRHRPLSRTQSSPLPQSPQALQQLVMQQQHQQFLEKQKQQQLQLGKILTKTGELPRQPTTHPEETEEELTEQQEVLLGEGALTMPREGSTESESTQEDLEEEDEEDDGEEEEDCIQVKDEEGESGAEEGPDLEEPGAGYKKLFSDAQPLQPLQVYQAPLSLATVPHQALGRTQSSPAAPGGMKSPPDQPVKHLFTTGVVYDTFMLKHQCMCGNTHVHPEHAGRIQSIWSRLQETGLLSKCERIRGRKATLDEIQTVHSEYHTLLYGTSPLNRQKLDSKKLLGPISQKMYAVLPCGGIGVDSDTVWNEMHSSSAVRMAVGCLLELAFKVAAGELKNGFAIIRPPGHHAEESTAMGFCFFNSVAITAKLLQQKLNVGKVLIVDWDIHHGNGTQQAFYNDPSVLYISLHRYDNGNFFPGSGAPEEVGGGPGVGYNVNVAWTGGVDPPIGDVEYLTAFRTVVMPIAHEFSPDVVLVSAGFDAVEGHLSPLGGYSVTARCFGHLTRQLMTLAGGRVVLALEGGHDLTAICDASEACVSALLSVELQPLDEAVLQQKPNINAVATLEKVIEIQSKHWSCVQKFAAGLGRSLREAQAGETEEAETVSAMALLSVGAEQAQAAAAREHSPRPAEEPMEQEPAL
T3 sequence (O15379 whole entry): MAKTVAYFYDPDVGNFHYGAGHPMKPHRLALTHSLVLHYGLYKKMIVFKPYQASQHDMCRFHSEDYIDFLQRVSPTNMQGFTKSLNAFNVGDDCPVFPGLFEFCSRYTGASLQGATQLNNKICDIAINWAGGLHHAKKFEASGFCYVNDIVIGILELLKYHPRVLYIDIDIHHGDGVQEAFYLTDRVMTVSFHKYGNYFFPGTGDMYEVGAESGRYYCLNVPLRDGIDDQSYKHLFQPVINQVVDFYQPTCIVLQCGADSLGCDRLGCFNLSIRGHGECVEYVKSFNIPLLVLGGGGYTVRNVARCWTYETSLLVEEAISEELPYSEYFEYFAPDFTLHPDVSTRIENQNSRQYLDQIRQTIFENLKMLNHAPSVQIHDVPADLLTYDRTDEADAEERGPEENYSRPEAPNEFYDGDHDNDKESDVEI
T3 sequence (Q9Y618 395-489 partner limits assumed): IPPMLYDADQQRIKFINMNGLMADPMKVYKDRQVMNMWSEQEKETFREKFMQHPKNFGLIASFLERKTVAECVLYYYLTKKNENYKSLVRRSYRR

For `O=C(CCCCCCC(=O)Nc1ccc(Cl)c(C(=O)Nc2ccc(NC(=O)c3cc(Cl)ccc3Cl)cc2)c1)NO` [IHR-SAHA], the “HDAC Activity (Fluorescent counts)” value (HDAC8; HDAC8, WW01 0 Log nM) was 21093 Fluorescent counts and 21821 Fluorescent counts, the “HDAC Activity (Fluorescent counts)” value (HDAC8; HDAC8, WW01 0.5 Log nM) was 22364 Fluorescent counts and 22102 Fluorescent counts and the “HDAC Activity (Fluorescent counts)” value (HDAC8; HDAC8, WW01 1 Log nM) was 22562 Fluorescent counts and 22110 Fluorescent counts. For the same molecule, the “HDAC Activity (Fluorescent counts)” value (HDAC8; HDAC8, WW01 1.5 Log nM) was 21528 Fluorescent counts and 20488 Fluorescent counts, the “HDAC Activity (Fluorescent counts)” value (HDAC8; HDAC8, WW01 2 Log nM) was 18696 Fluorescent counts and 20642 Fluorescent counts and the “HDAC Activity (Fluorescent counts)” value (HDAC8; HDAC8, WW01 2.5 Log nM) was 20242 Fluorescent counts and 19075 Fluorescent counts. The “HDAC Activity (Fluorescent counts)” value (HDAC8; HDAC8, WW01 3 Log nM) was 18387 Fluorescent counts and 19845 Fluorescent counts, the “HDAC Activity (Fluorescent counts)” value (HDAC8; HDAC8, WW01 3.5 Log nM) was 17109 Fluorescent counts and 19683 Fluorescent counts and the “HDAC Activity (Fluorescent counts)” value (HDAC8; HDAC8, WW01 4 Log nM) was 16686 Fluorescent counts and 18294 Fluorescent counts. The “HDAC Activity (Fluorescent counts)” value (HDAC8; HDAC8, WW01 -0.5 Log nM) was 19254 Fluorescent counts and 22456 Fluorescent counts, the pIC50 (HDAC8; [4]) was under 5.00 and the pIC50 [1] was 8.52. The “HDAC Activity (Fluorescent counts)” value (HDAC5; HDAC5, WW01 0 Log nM) was 30976 Fluorescent counts and 29141 Fluorescent counts, the “HDAC Activity (Fluorescent counts)” value (HDAC5; HDAC5, WW01 0.5 Log nM) was 29969 Fluorescent counts and 29451 Fluorescent counts and the “HDAC Activity (Fluorescent counts)” value (HDAC5; HDAC5, WW01 1 Log nM) was 31041 Fluorescent counts and 29968 Fluorescent counts. The “HDAC Activity (Fluorescent counts)” value (HDAC5; HDAC5, WW01 1.5 Log nM) was 29717 Fluorescent counts and 27943 Fluorescent counts, the “HDAC Activity (Fluorescent counts)” value (HDAC5; HDAC5, WW01 2 Log nM) was 26390 Fluorescent counts and 24587 Fluorescent counts and the “HDAC Activity (Fluorescent counts)” value (HDAC5; HDAC5, WW01 2.5 Log nM) was 24330 Fluorescent counts and 23282 Fluorescent counts. The “HDAC Activity (Fluorescent counts)” value (HDAC5; HDAC5, WW01 3 Log nM) was 21924 Fluorescent counts and 21338 Fluorescent counts, the “HDAC Activity (Fluorescent counts)” value (HDAC5; HDAC5, WW01 3.5 Log nM) was 23432 Fluorescent counts and 20698 Fluorescent counts and the “HDAC Activity (Fluorescent counts)” value (HDAC5; HDAC5, WW01 4 Log nM) was 19760 Fluorescent counts and 18237 Fluorescent counts. For the same molecule, the “HDAC Activity (Fluorescent counts)” value (HDAC5; HDAC5, WW01 -0.5 Log nM) was 30061 Fluorescent counts and 30641 Fluorescent counts, the pIC50 (HDAC5; [4]) was under 5.00 and the “GLI1 binding to immobilized oligos with consensus GLI binding sequence” value [2] was “loss of GLI1 binding”. The “HDAC Activity (Fluorescent counts)” value (HDAC3/NCOR2; HDAC3/NCOR2, WW01 0 Log nM) was 24959 Fluorescent counts and 25571 Fluorescent counts, the “HDAC Activity (Fluorescent counts)” value (HDAC3/NCOR2; HDAC3/NCOR2, WW01 0.5 Log nM) was 24611 Fluorescent counts and 25823 Fluorescent counts and the “HDAC Activity (Fluorescent counts)” value (HDAC3/NCOR2; HDAC3/NCOR2, WW01 1 Log nM) was 23771 Fluorescent counts and 23666 Fluorescent counts. For the same molecule, the “HDAC Activity (Fluorescent counts)” value (HDAC3/NCOR2; HDAC3/NCOR2, WW01 1.5 Log nM) was 20712 Fluorescent counts and 23164 Fluorescent counts, the “HDAC Activity (Fluorescent counts)” value (HDAC3/NCOR2; HDAC3/NCOR2, WW01 2 Log nM) was 15438 Fluorescent counts and 15968 Fluorescent counts and the “HDAC Activity (Fluorescent counts)” value (HDAC3/NCOR2; HDAC3/NCOR2, WW01 2.5 Log nM) was 10185 Fluorescent counts and 10772 Fluorescent counts. The “HDAC Activity (Fluorescent counts)” value (HDAC3/NCOR2; HDAC3/NCOR2, WW01 3 Log nM) was 6354 Fluorescent counts and 6385 Fluorescent counts, the “HDAC Activity (Fluorescent counts)” value (HDAC3/NCOR2; HDAC3/NCOR2, WW01 3.5 Log nM) was 4726 Fluorescent counts and 4835 Fluorescent counts and the “HDAC Activity (Fluorescent counts)” value (HDAC3/NCOR2; HDAC3/NCOR2, WW01 4 Log nM) was 3849 Fluorescent counts and 3671 Fluorescent counts. The “HDAC Activity (Fluorescent counts)” value (HDAC3/NCOR2; HDAC3/NCOR2, WW01 -0.5 Log nM) was 25301 Fluorescent counts and 26608 Fluorescent counts, the pIC50 (HDAC3/NCOR2; [4]) was 6.73 and the pIC50 [3] was 5.89.
